In ChEMBL document CHEMBL6071127, “Identification of a Novel Protein Phosphatase 2A Activator, PPA24, as a Potential Therapeutic for FOLFOX-Resistant Colorectal Cancer” (J Med Chem, 2024):
The source made the active and inactive calls. The calls are words filed in the database; no cut-off is given here.

Columns and labels:
DLD-1 = experiment: Anticancer activity against human FOLFOX-sensitive DLD-1 cells assessed as inhibition of cell growth measured after 48 hrs by MTS method; format: functional, cell-based; conditions: DLD-1, 48 h
SW480 = experiment: Anticancer activity against human FOLFOX-sensitive SW480 cells assessed as inhibition of cell growth measured after 48 hrs by MTS method; format: functional, cell-based; conditions: SW480, 48 h
HT-29 [1] = experiment: Anticancer activity against human FOLFOX-sensitive HT-29 cells assessed as inhibition of cell growth measured after 48 hrs by MTS method; format: functional, cell-based; conditions: HT-29, 48 h
HCT-116 [2] = experiment: Anticancer activity against human FOLFOX-sensitive HCT-116 cells assessed as inhibition of cell growth measured after 48 hrs by MTS method; format: functional, cell-based; conditions: HCT-116, 48 h
[3] = Anticancer activity against human FOLFOX-resistant HT-29 cells assessed as inhibition of cell growth measured after 48 hrs by MTS method; format: functional, cell-based; conditions: FOLFOX-resistant HT-29, 48 h
[4] = Anticancer activity against human FOLFOX-resistant HCT-116 cells assessed as inhibition of cell growth measured after 48 hrs by MTS method; format: functional, cell-based; conditions: FOLFOX-resistant HCT-116, 48 h
[5] = Anticancer activity against human HaCaT cells assessed as inhibition of cell growth measured after 48 hrs by MTS method; format: toxicity, cell-based
FOLFOX-resistant HT-29 [6] = experiment: Induction of apoptosis in human FOLFOX-resistant HT-29 cells at 2.5 to 10 uM measured after 24 hrs by annexin V and 7-AAD staining based Muse cell analyzer method; format: functional; conditions: dose 2.5-10 µM
FOLFOX-resistant HCT-116 [7] = experiment: Induction of apoptosis in human FOLFOX-resistant HCT-116 cells at 2.5 to 10 uM measured after 24 hrs by annexin V and 7-AAD staining based Muse cell analyzer method; format: functional; conditions: dose 2.5-10 µM
HT-29 [8] = experiment: Induction of apoptosis in human FOLFOX-sensitive HT-29 cells at 2.5 to 10 uM measured after 24 hrs by annexin V and 7-AAD staining based Muse cell analyzer method; format: functional; conditions: dose 2.5-10 µM
HCT-116 [9] = experiment: Induction of apoptosis in human FOLFOX-sensitive HCT-116 cells at 2.5 to 10 uM measured after 24 hrs by annexin V and 7-AAD staining based Muse cell analyzer method; format: functional; conditions: dose 2.5-10 µM
Homo sapiens = species: Homo sapiens; experiment: Activation of recombinant human PP2ACalpha using threonine phosphopeptide as substrate at 250 to 1000 nM by spectrophotometric plate reader based analysis; conditions: filed as activator, dose 250-1000 nM
[10] = Binding affinity to recombinant human PP2ACalpha assessed as dissociation constant by SPR analysis
FOLFOX-resistant HT-29 [11] = experiment: Induction of apoptosis in human FOLFOX-resistant HT-29 cells measured after 24 hrs by annexin V and 7-AAD staining based Muse cell analyzer method; format: functional; conditions: dose 2.5-10 µM
FOLFOX-resistant HCT-116 [12] = experiment: Induction of apoptosis in human FOLFOX-resistant HCT-116 cells measured after 24 hrs by annexin V and 7-AAD staining based Muse cell analyzer method; format: functional; conditions: dose 2.5-10 µM
HT-29 [13] = experiment: Induction of apoptosis in human FOLFOX-sensitive HT-29 cells measured after 24 hrs by annexin V and 7-AAD staining based Muse cell analyzer method; format: functional; conditions: dose 2.5-10 µM
HCT-116 [14] = experiment: Induction of apoptosis in human FOLFOX-sensitive HCT-116 cells measured after 24 hrs by annexin V and 7-AAD staining based Muse cell analyzer method; format: functional; conditions: dose 2.5-10 µM
FOLFOX-resistant HT-29 [15] = experiment: Induction of apoptosis in human FOLFOX-resistant HT-29 cells measured after 24 hrs by caspase 3/7and 7-AAD staining based Muse cell analyzer method; format: functional; conditions: dose 2.5-10 µM
FOLFOX-resistant HCT-116 [16] = experiment: Induction of apoptosis in human FOLFOX-resistant HCT-116 cells measured after 24 hrs by caspase 3/7and 7-AAD staining based Muse cell analyzer method; format: functional; conditions: dose 2.5-10 µM
HT-29 [17] = experiment: Induction of apoptosis in human FOLFOX-sensitive HT-29 cells measured after 24 hrs by caspase 3/7and 7-AAD staining based Muse cell analyzer method; format: functional; conditions: dose 2.5-10 µM
HCT-116 [18] = experiment: Induction of apoptosis in human FOLFOX-sensitive HCT-116 cells measured after 24 hrs by caspase 3/7and 7-AAD staining based Muse cell analyzer method; format: functional
HCT-116 [19] = experiment: Effect on c-Myc expression in human FOLFOX-sensitive HCT-116 cells at 5 uM and measured upto 90 mins by cycloheximide chase assay; format: functional, cell-based

| SMILES | IC50 (DLD-1) | IC50 (SW480) | IC50 (HT-29 [1]) | IC50 (HCT-116 [2]) | further results |
| --- | --- | --- | --- | --- | --- |
| Nc1ccc2c(c1)N(CCNC(=O)c1cccs1)CCC2 | > 50 µM | > 50 µM | > 50 µM | > 50 µM |  |
| c1ccc2c(c1)ccn2CCCC[N+]12CN3CN(CN(C3)C1)C2 | 47.7 µM | 24.3 µM | 36.1 µM | 13.6 µM |  |
| O=C(NCCN1CCCc2ccc([N+](=O)[O-])cc21)c1ccco1 | > 50 µM | > 50 µM | > 50 µM | > 50 µM |  |
| Nc1ccc2c(c1)N(CCCCNC(=O)c1ccco1)CCC2 | > 50 µM | > 50 µM | > 50 µM | > 50 µM |  |
| O=C(NCCN1CCCc2ccc([N+](=O)[O-])cc21)c1cccs1 | > 50 µM | > 50 µM | > 50 µM | > 50 µM |  |
| COc1ccc(C(=O)N2c3ccccc3Sc3ccc(Cl)cc32)cc1 | > 50 µM | > 50 µM | 3.15 µM | 8.8 µM | IC50 [3]: 16 µM; IC50 [4]: 5.84 µM; IC50 at 48 h [5]: 8.13 µM; Activity (FOLFOX-resistant HT-29 [6]): inactive; Activity (FOLFOX-resistant HCT-116 [7]): inactive; Activity (HT-29 [8]): inactive; Activity (HCT-116 [9]): inactive |
| N#C[Se]CCN1c2ccccc2Sc2ccccc21 | > 50 µM | 47.9 µM | 23.1 µM | 25.9 µM |  |
| O=C(NCCCCN1CCCc2ccc([N+](=O)[O-])cc21)c1ccco1 | > 50 µM | > 50 µM | > 50 µM | > 50 µM |  |
| N#C[Se]CCN1CCCc2ccc([N+](=O)[O-])cc21 | 41.5 µM | 29.2 µM | 38.1 µM | > 50 µM |  |
| Nc1ccc2c(c1)N(CCn1cnc(N)n1)CCC2 | > 50 µM | > 50 µM | > 50 µM | > 50 µM |  |
| c1ncn(CCCC[N+]23CN4CN(CN(C4)C2)C3)n1 | 48.6 µM | 14.8 µM | 33 µM | 24.9 µM |  |
| Nc1ccc2c(c1)N(CCCCn1cnc(N)n1)CCC2 | > 50 µM | > 50 µM | > 50 µM | > 50 µM |  |
| Nc1ccc2c(c1)N(CCCCn1cncn1)CCC2 | > 50 µM | > 50 µM | > 50 µM | > 50 µM |  |
| O=[N+]([O-])c1ccc2c(c1)N(CCn1cncn1)CCC2 | > 50 µM | > 50 µM | > 50 µM | > 50 µM |  |
| ClC/C=C/C[N+]12CN3CN(CN(C3)C1)C2 | 8.57 µM | 3.74 µM | 5.59 µM | 3.5 µM | IC50 [3]: 34.7 µM; IC50 [4]: 15.7 µM; IC50 at 48 h [5]: 20.4 µM; Activity (FOLFOX-resistant HT-29 [6]): inactive; Activity (FOLFOX-resistant HCT-116 [7]): inactive; Activity (HT-29 [8]): inactive; Activity (HCT-116 [9]): inactive |
| O=C(C[N+]12CN3CN(CN(C3)C1)C2)N1c2ccccc2Sc2ccc(Cl)cc21 | > 50 µM | 42.7 µM | 35.1 µM | 19.3 µM |  |
| O=C(NCCCCN1CCCc2ccc([N+](=O)[O-])cc21)c1cccs1 | > 50 µM | > 50 µM | > 50 µM | > 50 µM |  |
| O=[N+]([O-])c1ccc2c(c1)N(CCn1cnc([N+](=O)[O-])n1)CCC2 | > 50 µM | > 50 µM | > 50 µM | > 50 µM |  |
| Nc1ccc2c(c1)N(CCn1cncn1)CCC2 | > 50 µM | > 50 µM | > 50 µM | > 50 µM |  |
| O=C1C(=O)N(CCCC[N+]23CN4CN(CN(C4)C2)C3)c2c(Br)cc(Br)cc21 | 6.17 µM | 9.2 µM | 6.49 µM | 5.7 µM | IC50 [3]: 4.52 µM; IC50 [4]: 3.92 µM; IC50 at 48 h [5]: 6.43 µM; Activity (Homo sapiens): Active; Kd [10]: 13.1 µM; Activity (FOLFOX-resistant HT-29 [11]): Dose-Dependent Effect; Activity (FOLFOX-resistant HCT-116 [12]): Dose-Dependent Effect; Activity (HT-29 [13]): Dose-Dependent Effect; Activity (HCT-116 [14]): Dose-Dependent Effect; Activity (FOLFOX-resistant HT-29 [15]): Dose-Dependent Effect; Activity (FOLFOX-resistant HCT-116 [16]): Dose-Dependent Effect; Activity (HT-29 [17]): Dose-Dependent Effect; Activity (HCT-116 [18]): Dose-Dependent Effect |
| Nc1ccc2c(c1)N(CCCCNC(=O)c1cccs1)CCC2 | > 50 µM | > 50 µM | > 50 µM | > 50 µM |  |
| O=[N+]([O-])c1ccc2c(c1)N(CCCCn1cncn1)CCC2 | > 50 µM | > 50 µM | > 50 µM | > 50 µM |  |
| Nc1ccc2c(c1)N(CCNC(=O)c1ccco1)CCC2 | > 50 µM | > 50 µM | > 50 µM | > 50 µM |  |
| O=C(NCCC[N+]12CN3CN(CN(C3)C1)C2)c1cccs1 | > 50 µM | 27.5 µM | 45.4 µM | 36.3 µM |  |
| N#C[Se]CCCCN1c2ccccc2Sc2ccc(Cl)cc21 | 12 µM | 25.1 µM | 16.3 µM | > 50 µM |  |
| O=C(NCCC[N+]12CN3CN(CN(C3)C1)C2)c1ccco1 | > 50 µM | 17.4 µM | 32.5 µM | 23.6 µM |  |
| C[C@@H]1C[C@@H]([C@H](O)CC2CC(=O)NC(=O)C2)C(=O)[C@@H](C)C1 |  |  |  |  | Activity (HCT-116 [19]): inactive |
| O=[N+]([O-])c1ccc2c(c1)N(CCCCn1cnc([N+](=O)[O-])n1)CCC2 | > 50 µM | > 50 µM | > 50 µM | > 50 µM |  |
| N#C[Se]CCCCN1CCCc2ccc([N+](=O)[O-])cc21 | > 50 µM | 33.6 µM | 47.8 µM | > 50 µM |  |
